Experiment [1] deals with T1, Alpha-2B adrenergic receptor (Homo sapiens, UniProt P18089).
T1 sequence (P18089 whole entry): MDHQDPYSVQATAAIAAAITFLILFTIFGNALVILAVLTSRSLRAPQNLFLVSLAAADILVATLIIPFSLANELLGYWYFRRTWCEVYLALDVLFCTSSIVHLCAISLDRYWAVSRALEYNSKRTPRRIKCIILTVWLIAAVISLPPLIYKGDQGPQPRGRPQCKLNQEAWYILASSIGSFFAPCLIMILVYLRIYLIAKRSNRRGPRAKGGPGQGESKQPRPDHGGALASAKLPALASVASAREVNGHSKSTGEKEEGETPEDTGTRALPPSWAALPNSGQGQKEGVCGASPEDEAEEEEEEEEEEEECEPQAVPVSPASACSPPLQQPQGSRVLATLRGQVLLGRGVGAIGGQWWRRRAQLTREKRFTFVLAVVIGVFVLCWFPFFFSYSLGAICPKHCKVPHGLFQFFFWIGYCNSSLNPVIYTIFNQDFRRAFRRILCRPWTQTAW

Experiment [2] concerns the target T2, Muscarinic acetylcholine receptor M1 (Homo sapiens, UniProt P11229).
T2 sequence (P11229 whole entry): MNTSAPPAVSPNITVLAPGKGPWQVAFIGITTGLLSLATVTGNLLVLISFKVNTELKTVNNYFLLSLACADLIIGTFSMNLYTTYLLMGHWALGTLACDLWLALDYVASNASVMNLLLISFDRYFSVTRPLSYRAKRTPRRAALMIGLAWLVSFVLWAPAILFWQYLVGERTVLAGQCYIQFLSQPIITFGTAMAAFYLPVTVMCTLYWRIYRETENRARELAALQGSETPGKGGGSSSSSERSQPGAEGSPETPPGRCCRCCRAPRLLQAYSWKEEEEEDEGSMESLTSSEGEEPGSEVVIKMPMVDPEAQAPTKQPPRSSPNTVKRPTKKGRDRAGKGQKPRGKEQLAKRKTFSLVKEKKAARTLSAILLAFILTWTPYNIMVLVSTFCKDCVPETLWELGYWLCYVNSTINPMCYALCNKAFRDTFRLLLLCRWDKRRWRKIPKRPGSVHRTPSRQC
It is filed as functional.

Experiment [3] has as its target Sodium channel protein type 5 subunit alpha (Homo sapiens, UniProt Q14524). In kind it is functional, cell-based.
Experiment [4] deals with T3, Muscarinic acetylcholine receptor M2 (Homo sapiens, UniProt P08172).
T3 sequence (P08172 whole entry): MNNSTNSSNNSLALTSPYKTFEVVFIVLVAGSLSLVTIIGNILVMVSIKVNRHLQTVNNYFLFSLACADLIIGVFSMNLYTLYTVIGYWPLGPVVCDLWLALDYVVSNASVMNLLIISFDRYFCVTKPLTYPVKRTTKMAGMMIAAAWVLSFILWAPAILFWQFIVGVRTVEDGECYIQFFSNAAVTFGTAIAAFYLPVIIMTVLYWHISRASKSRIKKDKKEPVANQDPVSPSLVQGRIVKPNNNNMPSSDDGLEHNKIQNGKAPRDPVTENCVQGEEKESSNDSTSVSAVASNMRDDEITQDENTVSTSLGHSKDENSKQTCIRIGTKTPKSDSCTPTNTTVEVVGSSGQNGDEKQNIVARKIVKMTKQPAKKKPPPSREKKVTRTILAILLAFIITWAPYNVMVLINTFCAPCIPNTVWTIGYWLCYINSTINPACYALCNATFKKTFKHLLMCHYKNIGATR

A further experiment addresses Histamine H2 receptor (Homo sapiens, UniProt P25021).
Another experiment concerns the target T4, B1 bradykinin receptor (Homo sapiens, UniProt P46663).
T4 sequence (P46663 whole entry): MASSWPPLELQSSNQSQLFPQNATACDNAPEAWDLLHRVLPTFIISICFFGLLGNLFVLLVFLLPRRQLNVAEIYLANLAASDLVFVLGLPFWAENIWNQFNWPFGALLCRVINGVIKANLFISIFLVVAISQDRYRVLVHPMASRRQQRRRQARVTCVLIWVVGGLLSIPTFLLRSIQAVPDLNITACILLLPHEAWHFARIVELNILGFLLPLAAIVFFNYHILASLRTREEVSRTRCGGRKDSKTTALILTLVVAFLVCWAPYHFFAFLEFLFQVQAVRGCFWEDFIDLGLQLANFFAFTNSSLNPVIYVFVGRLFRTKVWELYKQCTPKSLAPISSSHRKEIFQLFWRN

Experiment [5] deals with T5, Peroxisome proliferator-activated receptor gamma (Homo sapiens, UniProt P37231).
T5 sequence (P37231 whole entry): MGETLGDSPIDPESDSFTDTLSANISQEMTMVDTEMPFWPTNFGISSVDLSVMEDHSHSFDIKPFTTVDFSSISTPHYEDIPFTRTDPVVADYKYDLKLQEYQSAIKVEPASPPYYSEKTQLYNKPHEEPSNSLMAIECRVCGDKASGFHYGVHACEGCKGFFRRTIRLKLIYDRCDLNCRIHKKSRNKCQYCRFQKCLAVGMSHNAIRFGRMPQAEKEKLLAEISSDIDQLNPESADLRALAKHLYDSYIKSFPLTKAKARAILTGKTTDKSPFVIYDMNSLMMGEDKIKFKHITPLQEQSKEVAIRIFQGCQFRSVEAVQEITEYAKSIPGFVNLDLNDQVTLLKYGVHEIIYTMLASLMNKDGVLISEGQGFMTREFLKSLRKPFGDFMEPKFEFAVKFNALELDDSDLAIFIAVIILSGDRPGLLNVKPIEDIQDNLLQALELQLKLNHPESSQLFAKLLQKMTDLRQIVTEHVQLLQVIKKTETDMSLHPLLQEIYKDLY
It is filed as functional.

Broadly, the AC50 is the midpoint of the concentration-response curve, whichever way the signal moves. A low value points to activity at low concentration.
Also: assay procedure not described here.

Histamine H2 receptor, sequence (P25021 whole entry): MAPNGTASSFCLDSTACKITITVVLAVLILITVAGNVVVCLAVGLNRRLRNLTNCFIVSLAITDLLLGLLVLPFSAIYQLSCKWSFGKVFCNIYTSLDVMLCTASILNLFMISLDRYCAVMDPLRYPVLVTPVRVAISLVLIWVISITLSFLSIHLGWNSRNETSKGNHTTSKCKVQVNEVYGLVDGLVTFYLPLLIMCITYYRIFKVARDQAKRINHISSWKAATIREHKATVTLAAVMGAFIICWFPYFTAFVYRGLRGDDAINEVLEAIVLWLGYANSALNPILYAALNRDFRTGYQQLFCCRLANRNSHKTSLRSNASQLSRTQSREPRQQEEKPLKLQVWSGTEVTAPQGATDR
Sodium channel protein type 5 subunit alpha, sequence (Q14524 whole entry): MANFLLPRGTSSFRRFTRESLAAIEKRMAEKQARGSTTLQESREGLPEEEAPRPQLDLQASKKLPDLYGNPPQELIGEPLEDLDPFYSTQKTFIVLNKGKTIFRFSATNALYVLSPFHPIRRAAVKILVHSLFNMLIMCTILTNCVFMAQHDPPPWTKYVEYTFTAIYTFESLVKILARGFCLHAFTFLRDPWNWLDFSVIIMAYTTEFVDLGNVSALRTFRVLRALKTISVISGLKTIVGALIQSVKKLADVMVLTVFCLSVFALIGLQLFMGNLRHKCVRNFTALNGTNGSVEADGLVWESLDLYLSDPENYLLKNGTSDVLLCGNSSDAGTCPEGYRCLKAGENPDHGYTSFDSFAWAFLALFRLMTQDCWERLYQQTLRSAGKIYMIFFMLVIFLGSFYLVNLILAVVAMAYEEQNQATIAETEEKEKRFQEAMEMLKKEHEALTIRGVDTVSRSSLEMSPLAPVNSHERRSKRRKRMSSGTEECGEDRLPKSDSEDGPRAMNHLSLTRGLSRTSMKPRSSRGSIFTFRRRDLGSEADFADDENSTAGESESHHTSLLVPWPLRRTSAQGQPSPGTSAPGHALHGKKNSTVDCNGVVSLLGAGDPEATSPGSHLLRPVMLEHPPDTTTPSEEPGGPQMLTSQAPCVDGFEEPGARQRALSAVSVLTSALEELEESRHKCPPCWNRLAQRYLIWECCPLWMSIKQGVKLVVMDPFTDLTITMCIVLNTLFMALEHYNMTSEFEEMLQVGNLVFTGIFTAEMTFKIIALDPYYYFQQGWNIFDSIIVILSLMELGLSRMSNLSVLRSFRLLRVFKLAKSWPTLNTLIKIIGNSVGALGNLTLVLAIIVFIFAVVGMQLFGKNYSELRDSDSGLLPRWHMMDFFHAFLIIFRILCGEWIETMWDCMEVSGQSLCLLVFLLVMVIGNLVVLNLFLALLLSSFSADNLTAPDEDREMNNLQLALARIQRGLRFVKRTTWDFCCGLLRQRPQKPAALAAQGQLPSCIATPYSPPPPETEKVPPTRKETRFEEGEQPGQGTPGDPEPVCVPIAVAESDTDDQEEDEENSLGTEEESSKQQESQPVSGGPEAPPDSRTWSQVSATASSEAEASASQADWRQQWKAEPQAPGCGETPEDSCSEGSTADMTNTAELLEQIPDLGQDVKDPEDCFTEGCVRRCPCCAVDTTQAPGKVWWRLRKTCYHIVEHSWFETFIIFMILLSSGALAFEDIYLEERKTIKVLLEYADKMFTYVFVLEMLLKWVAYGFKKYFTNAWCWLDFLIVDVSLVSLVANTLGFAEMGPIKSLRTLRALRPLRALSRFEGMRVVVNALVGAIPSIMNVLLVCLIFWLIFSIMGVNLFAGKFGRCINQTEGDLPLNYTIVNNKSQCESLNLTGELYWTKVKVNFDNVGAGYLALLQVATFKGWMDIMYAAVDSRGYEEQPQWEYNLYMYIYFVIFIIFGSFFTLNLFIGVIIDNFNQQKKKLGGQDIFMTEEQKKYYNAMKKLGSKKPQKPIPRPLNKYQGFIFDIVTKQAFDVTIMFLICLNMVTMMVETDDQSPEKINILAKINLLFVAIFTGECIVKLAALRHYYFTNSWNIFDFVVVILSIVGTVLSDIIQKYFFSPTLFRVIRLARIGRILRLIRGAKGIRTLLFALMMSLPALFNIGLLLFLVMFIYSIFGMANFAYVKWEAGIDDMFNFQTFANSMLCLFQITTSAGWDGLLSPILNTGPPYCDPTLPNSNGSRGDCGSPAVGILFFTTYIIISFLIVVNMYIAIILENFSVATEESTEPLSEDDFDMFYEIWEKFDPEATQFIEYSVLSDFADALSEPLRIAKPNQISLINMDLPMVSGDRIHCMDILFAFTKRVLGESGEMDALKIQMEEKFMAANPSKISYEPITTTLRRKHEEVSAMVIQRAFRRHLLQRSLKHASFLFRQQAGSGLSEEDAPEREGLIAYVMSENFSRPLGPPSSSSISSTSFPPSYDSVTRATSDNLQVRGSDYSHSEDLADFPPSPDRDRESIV

Regarding `C[C@@H](NCCCc1cccc(C(F)(F)F)c1)c1cccc2ccccc12`, the figures for the AC50 in experiment [1] and in experiment [2] were over 30 µM and 17 µM, respectively.
`OC[C@H]1O[C@@H](c2ccc(Cl)c(Cc3ccc(O[C@H]4CCOC4)cc3)c2)[C@H](O)[C@@H](O)[C@@H]1O` [EMPAGLIFLOZIN]: the concentration at half-maximal activity (AC50) in experiment [3] was over 50 µM.
With `Cc1onc(-c2ccccc2)c1-c1ccc(S(N)(=O)=O)cc1` [VALDECOXIB], the concentration at half-maximal activity (AC50) in experiment [4] was over 10 µM; on Histamine H2 receptor, over 10 µM; on B1 bradykinin receptor, over 30 µM; in experiment [5], over 30 µM.
As to `C[C@]12C=CC(=O)N[C@@H]1CC[C@@H]1[C@@H]2CC[C@]2(C)[C@@H](C(=O)Nc3cc(C(F)(F)F)ccc3C(F)(F)F)CC[C@@H]12` [DUTASTERIDE], the concentration at half-maximal activity (AC50) in experiment [1] and in experiment [2] was over 10 µM throughout.
Turning to `CN(C)CCc1c[nH]c2ccc(Cn3cncn3)cc12` [RIZATRIPTAN], the AC50 in experiment [4] is over 10 µM; on Histamine H2 receptor it was over 10 µM; at B1 bradykinin receptor, over 30 µM; in experiment [3], over 30 µM; in experiment [1], over 30 µM; in experiment [2], over 30 µM.
As for `Nc1ccc(S(=O)(=O)Nc2nccs2)cc1` [SULFATHIAZOLE], the concentration at half-maximal activity (AC50) in experiment [4] was over 10 µM; on Histamine H2 receptor, over 10 µM; on B1 bradykinin receptor, over 30 µM.
Turning to `COc1cc2nccc(Oc3ccc(NC(=O)C4(C(=O)Nc5ccc(F)cc5)CC4)cc3)c2cc1OC` [CABOZANTINIB], the AC50 in experiment [3] was over 3 µM; in experiment [5], over 30 µM; in experiment [1], over 30 µM; in experiment [2], over 30 µM.
For `CC(S)C(=O)NCC(=O)O` (stereo not given) [TIOPRONIN], the AC50 in experiment [5], in experiment [1] and in experiment [2] was over 30 µM in each case.
Take `COc1ccc(CC2c3cc(OC)c(OC)cc3CC[N+]2(C)CCC(=O)OCCCCCOC(=O)CC[N+]2(C)CCc3cc(OC)c(OC)cc3C2Cc2ccc(OC)c(OC)c2)cc1OC` (stereo not given): the concentration at half-maximal activity (AC50) in experiment [1] and in experiment [2] was over 30 µM in each case.
As for `O=C1CCc2cc(OCCCCc3nnnn3C3CCCCC3)ccc2N1` [CILOSTAZOL], the AC50 in experiment [3] is over 50 µM.
As to `CCN(CC)CCNC(=O)c1c(C)[nH]c(/C=C2\C(=O)Nc3ccc(F)cc32)c1C` [SUNITINIB], the values for the half-maximal activity concentration (AC50) in experiment [4] and in experiment [1] were 7.19 µM and 4.37 µM, respectively.
Take `COc1ccccc1Oc1c(NS(=O)(=O)c2ccc(C(C)(C)C)cc2)nc(-c2ncccn2)nc1OCCO` [BOSENTAN]: the AC50 in experiment [4] was over 10 µM; on Histamine H2 receptor, over 10 µM; on B1 bradykinin receptor, over 30 µM; in experiment [1], over 10 µM; in experiment [2] it was over 10 µM.
With `O=C1CN(/N=C/c2ccc(-c3ccc([N+](=O)[O-])cc3)o2)C(O)=N1` [DANTROLENE], the AC50 is over 50 µM in experiment [3], over 10 µM in experiment [1] and over 10 µM in experiment [2].
Take `CC(C(=O)O)c1ccc2c(c1)[nH]c1ccc(Cl)cc12` (stereo not given) [CARPROFEN]: the concentration at half-maximal activity (AC50) in experiment [1] and in experiment [2] was over 10 µM each time.
For the compound `C[C@H]1c2cccc(O)c2C(=O)C2=C(O)[C@]3(O)C(=O)C(C(N)=O)=C(O)[C@@H](N(C)C)[C@@H]3[C@@H](O)[C@@H]21` [DOXYCYCLINE], the AC50 in experiment [4] is over 10 µM; at Histamine H2 receptor, over 10 µM; on B1 bradykinin receptor, over 30 µM.
Consider `CC(C)N(CCC(C(N)=O)(c1ccccc1)c1ccccn1)C(C)C` (stereo not given) [DISOPYRAMIDE], for which the AC50 is over 30 µM on B1 bradykinin receptor, over 50 µM in experiment [3], over 10 µM in experiment [1] and over 10 µM in experiment [2].
For the compound `CCN1CCN(Cc2ccc(Nc3ncc(F)c(-c4cc(F)c5nc(C)n(C(C)C)c5c4)n3)nc2)CC1` [ABEMACICLIB], the AC50 in experiment [3] was over 50 µM; in experiment [5] it was over 30 µM; in experiment [1] it was over 30 µM; in experiment [2], over 30 µM.
Take `CC(C)Cc1ccc(C(C)C(=O)O)cc1` (stereo not given) [IBUPROFEN]: the concentration at half-maximal activity (AC50) in experiment [4] was over 10 µM; at Histamine H2 receptor it was over 10 µM; at B1 bradykinin receptor, over 30 µM.
`COc1ccccc1OCCNCC(O)COc1cccc2[nH]c3ccccc3c12` (stereo not given) [CARVEDILOL]: the AC50 was over 10 µM in experiment [4], 1.56 µM on Histamine H2 receptor, over 30 µM at B1 bradykinin receptor and 28 µM in experiment [5].
As for `CC(=O)O[C@]1(C(C)=O)CC[C@H]2[C@@H]3C=C(C)C4=CC(=O)CC[C@@H]4[C@H]3CC[C@@]21C` [NOMEGESTROL ACETATE], the half-maximal activity concentration (AC50) in experiment [1] and in experiment [2] was over 30 µM throughout.
For the compound `CCCN(CCC)C(=O)Cc1c(-c2ccc(Cl)cc2)nc2ccc(Cl)cn12` [ALPIDEM], the AC50 in experiment [4] is over 10 µM; at Histamine H2 receptor, over 10 µM; on B1 bradykinin receptor, over 10 µM; in experiment [1] it was over 30 µM; in experiment [2], over 30 µM.
On to `CCCC(CCC)C(=O)O` [VALPROIC ACID], for which the concentration at half-maximal activity (AC50) in experiment [4] is over 10 µM; on B1 bradykinin receptor, over 30 µM.
On to `C[C@H](CCC(=O)O)[C@H]1CC[C@H]2[C@@H]3[C@@H](O)C[C@@H]4C[C@H](O)CC[C@]4(C)[C@H]3CC[C@]12C` [URSODIOL], for which the half-maximal activity concentration (AC50) in experiment [5], in experiment [1] and in experiment [2] was over 30 µM in each case.
As to `CC(C)c1nc(N(C)S(C)(=O)=O)nc(-c2ccc(F)cc2)c1/C=C/[C@@H](O)C[C@@H](O)CC(=O)O` [ROSUVASTATIN], the AC50 in experiment [5], in experiment [1] and in experiment [2] was over 30 µM in each case.
In the case of `COc1cc2nc(N3CCN(C(=O)C4CCCO4)CC3)nc(N)c2cc1OC` (stereo not given) [TERAZOSIN], the values for the half-maximal activity concentration (AC50) (in experiment [4]; at Histamine H2 receptor; on B1 bradykinin receptor) were over 10 µM, over 10 µM and over 30 µM, respectively.
Regarding `CO[C@H]1/C=C/O[C@@]2(C)Oc3c(C)c(O)c4c(O)c(c(/C=N/N5CCN(C)CC5)c(O)c4c3C2=O)NC(=O)/C(C)=C\C=C\[C@H](C)[C@H](O)[C@@H](C)[C@@H](O)[C@@H](C)[C@H](OC(C)=O)[C@@H]1C` [RIFAMPIN], the concentration at half-maximal activity (AC50) at Histamine H2 receptor was over 10 µM; on B1 bradykinin receptor, 14.2 µM.
On to `CN1C[C@H](C(=O)N[C@]2(C)O[C@@]3(O)[C@@H]4CCCN4C(=O)[C@H](Cc4ccccc4)N3C2=O)C=C2c3cccc4[nH]cc(c34)C[C@H]21` [ERGOTAMINE], for which the concentration at half-maximal activity (AC50) in experiment [5] is over 30 µM.
For `C=C[C@H]1C[N@@]2CC[C@H]1C[C@@H]2[C@@H](O)c1ccnc2ccc(OC)cc12` [QUINIDINE], the values for the half-maximal activity concentration (AC50) in experiment [1] and in experiment [2] were 6.5 µM and over 10 µM, respectively.
Regarding `C[C@@H](Oc1cc(-c2cnn(C3CCNCC3)c2)cnc1N)c1c(Cl)ccc(F)c1Cl` [CRIZOTINIB], the AC50 is over 10 µM in experiment [4], over 30 µM in experiment [5], over 30 µM in experiment [1] and over 30 µM in experiment [2].

Source of the values: ChEMBL document CHEMBL5291721, “A preclinical secondary pharmacology resource illuminates target-adverse drug reaction associations of marketed drugs” (Nat Commun, 2023).
